Reference: EP4722207A1, “OXOISOINDOLINYL-SUBSTITUTED TETRAHYDROPYRIMIDINEDIONE DERIVATIVE AND USE THEREOF” (Gluetacs Therapeutics (Shanghai) Co., Ltd., priority 2023, dated 2024)

Legend:
Type in all cases: cell-based
IKZF3 = target: T1, IKZF3 (Homo sapiens, UniProt Q96SW2+Q9UKT9); test: Western-blot assay, substrate protein degradation in hPBMCs: IKZF3; settings: for IKZF3 substrate protein remaining %: compounds at 50 nM and 500 nM, 24 hours; for substrate protein remaining % IKZF3: 24 hours of compound treatment, 50 nM and 500 nM
T1 construct: effects of the compounds of the present disclosure on the expression of target proteins in cells; endogenous in cells; host or cells: human PBMCs (hPBMCs)

CK1α = target: T2, CK1α (Homo sapiens, UniProt P48729+Q96SW2); test: Western-blot assay, substrate protein degradation in hPBMCs: CK1α; settings: for CK1α substrate protein remaining %: compounds at 50 nM and 500 nM, 24 hours; for substrate protein remaining % CK1α: 24 hours of compound treatment, 50 nM and 500 nM
T2 construct: effects of the compounds of the present disclosure on the expression of target proteins in cells; endogenous in cells; host or cells: human PBMCs (hPBMCs)

IKZF1 = target: T3, IKZF1 (Homo sapiens, UniProt Q13422+Q96SW2); test: Western-blot assay, substrate protein degradation in hPBMCs: IKZF1; settings: for IKZF1 substrate protein remaining %: compounds at 50 nM and 500 nM, 24 hours; for substrate protein remaining % IKZF1: 24 hours of compound treatment, 50 nM and 500 nM
T3 construct: effects of the compounds of the present disclosure on the expression of target proteins in cells; endogenous in cells; host or cells: human PBMCs (hPBMCs)

IKZF2 = target: T4, IKZF2 (Homo sapiens, UniProt Q96SW2+Q9UKS7); test: Western-blot assay, substrate protein degradation in hPBMCs: IKZF2; settings: for IKZF2 substrate protein remaining %: compounds at 50 nM and 500 nM, 24 hours; for substrate protein remaining % IKZF2: 24 hours of compound treatment, 50 nM and 500 nM
T4 construct: effects of the compounds of the present disclosure on the expression of target proteins in cells; endogenous in cells; host or cells: human PBMCs (hPBMCs)

WEE1 = target: T5, WEE1 (Homo sapiens, UniProt P30291+Q96SW2); test: Western-blot assay, substrate protein degradation in hPBMCs: WEE1; settings: for WEE1 substrate protein remaining %: compounds at 50 nM and 500 nM, 24 hours; for substrate protein remaining % WEE1: 24 hours of compound treatment, 50 nM and 500 nM
T5 construct: effects of the compounds of the present disclosure on the expression of target proteins in cells; endogenous in cells; host or cells: human PBMCs (hPBMCs)

GSPT1 = target: T6, GSPT1 (Homo sapiens, UniProt P15170+Q96SW2); test: Western-blot assay, substrate protein degradation in hPBMCs: GSPT1; settings: for GSPT1 substrate protein remaining %: compounds at 50 nM and 500 nM, 24 hours; for substrate protein remaining % GSPT1: 24 hours of compound treatment, 50 nM and 500 nM
T6 construct: effects of the compounds of the present disclosure on the expression of target proteins in cells; endogenous in cells; host or cells: human PBMCs (hPBMCs)
T6 sequence (P15170 whole entry): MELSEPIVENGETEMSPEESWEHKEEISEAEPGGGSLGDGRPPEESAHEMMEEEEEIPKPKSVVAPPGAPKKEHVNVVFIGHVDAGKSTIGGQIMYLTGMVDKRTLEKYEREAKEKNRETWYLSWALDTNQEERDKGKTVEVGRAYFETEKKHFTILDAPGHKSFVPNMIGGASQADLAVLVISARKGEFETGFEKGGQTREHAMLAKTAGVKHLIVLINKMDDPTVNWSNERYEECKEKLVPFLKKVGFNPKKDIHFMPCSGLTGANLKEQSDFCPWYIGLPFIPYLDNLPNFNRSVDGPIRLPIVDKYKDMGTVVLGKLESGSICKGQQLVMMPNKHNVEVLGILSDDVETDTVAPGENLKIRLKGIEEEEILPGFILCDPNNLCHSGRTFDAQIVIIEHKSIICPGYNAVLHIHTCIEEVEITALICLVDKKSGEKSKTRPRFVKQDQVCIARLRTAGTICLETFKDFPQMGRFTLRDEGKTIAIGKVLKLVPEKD
T6 sequence (Q96SW2 whole entry): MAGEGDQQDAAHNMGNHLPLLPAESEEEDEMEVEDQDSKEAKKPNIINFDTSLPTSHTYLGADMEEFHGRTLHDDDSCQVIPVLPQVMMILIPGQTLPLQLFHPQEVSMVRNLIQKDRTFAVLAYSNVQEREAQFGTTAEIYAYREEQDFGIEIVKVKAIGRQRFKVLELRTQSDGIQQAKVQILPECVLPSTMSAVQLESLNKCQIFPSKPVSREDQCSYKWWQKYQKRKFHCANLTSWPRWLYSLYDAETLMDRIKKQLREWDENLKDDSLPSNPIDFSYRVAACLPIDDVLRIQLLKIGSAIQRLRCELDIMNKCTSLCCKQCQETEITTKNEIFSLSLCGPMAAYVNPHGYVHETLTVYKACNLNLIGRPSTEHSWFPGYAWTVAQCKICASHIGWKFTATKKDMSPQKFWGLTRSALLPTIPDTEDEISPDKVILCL
T6 sequence (Q16531 whole entry partner): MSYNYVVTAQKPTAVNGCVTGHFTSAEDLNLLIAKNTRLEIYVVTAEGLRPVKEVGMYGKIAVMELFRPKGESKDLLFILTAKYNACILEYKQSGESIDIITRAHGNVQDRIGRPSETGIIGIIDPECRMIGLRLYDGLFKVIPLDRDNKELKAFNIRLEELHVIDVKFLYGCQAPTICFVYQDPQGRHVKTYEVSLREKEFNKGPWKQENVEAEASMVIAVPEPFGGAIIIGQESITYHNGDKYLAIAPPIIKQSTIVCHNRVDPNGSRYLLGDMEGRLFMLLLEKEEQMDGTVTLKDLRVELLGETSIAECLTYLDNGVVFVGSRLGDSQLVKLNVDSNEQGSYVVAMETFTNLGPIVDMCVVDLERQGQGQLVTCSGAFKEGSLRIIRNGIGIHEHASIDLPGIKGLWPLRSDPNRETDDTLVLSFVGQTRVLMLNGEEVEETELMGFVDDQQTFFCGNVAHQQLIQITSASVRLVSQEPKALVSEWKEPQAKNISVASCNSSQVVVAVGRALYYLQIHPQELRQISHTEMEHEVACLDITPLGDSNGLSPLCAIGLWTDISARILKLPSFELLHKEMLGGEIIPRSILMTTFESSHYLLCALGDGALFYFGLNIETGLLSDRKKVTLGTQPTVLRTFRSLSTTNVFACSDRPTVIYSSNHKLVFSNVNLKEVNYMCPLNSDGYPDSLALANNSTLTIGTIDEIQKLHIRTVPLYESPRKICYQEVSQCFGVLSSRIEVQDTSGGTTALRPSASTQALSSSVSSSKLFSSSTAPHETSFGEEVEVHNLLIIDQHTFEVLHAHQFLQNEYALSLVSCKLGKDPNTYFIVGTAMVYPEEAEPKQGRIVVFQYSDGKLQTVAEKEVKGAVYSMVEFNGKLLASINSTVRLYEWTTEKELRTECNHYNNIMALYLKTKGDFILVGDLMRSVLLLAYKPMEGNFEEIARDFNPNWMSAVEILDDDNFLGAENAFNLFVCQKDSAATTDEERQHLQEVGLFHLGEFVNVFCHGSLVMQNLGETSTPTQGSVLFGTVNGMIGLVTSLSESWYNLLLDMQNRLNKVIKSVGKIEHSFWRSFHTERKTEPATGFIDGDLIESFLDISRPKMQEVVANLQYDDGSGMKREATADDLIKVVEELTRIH

T1 sequence (Q9UKT9 whole entry): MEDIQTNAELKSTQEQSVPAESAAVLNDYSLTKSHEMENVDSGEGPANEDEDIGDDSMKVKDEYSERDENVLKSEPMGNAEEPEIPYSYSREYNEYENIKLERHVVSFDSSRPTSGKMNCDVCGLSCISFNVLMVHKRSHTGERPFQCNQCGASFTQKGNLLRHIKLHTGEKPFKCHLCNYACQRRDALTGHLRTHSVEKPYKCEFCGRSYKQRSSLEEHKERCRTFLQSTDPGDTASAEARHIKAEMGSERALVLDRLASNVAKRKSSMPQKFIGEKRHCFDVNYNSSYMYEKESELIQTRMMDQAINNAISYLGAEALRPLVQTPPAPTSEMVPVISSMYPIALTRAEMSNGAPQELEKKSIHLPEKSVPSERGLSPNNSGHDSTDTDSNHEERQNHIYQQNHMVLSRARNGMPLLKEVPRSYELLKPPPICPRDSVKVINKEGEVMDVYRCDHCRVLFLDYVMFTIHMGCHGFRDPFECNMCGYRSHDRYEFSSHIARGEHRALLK
T1 sequence (Q96SW2 whole entry): as the sequence (Q96SW2 whole entry) above
T1 sequence (Q16531 whole entry partner): as the sequence (Q16531 whole entry partner) above
T4 sequence (Q9UKS7 whole entry): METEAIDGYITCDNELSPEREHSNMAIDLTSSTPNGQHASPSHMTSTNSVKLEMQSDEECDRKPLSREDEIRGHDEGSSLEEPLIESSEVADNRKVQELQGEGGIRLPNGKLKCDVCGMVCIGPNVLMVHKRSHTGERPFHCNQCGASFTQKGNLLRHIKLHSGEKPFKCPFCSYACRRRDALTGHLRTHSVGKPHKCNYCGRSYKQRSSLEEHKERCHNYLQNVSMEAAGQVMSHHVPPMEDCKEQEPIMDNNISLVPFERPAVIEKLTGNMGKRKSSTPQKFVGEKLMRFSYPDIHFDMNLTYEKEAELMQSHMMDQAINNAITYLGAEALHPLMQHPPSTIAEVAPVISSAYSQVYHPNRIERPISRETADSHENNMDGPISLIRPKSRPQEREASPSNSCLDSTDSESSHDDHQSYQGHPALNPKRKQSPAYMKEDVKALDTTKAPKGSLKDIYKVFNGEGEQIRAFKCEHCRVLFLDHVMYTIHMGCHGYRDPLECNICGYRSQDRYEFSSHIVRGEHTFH
T4 sequence (Q96SW2 whole entry): as the sequence (Q96SW2 whole entry) above
T4 sequence (Q16531 whole entry partner): as the sequence (Q16531 whole entry partner) above
T5 sequence (P30291 whole entry): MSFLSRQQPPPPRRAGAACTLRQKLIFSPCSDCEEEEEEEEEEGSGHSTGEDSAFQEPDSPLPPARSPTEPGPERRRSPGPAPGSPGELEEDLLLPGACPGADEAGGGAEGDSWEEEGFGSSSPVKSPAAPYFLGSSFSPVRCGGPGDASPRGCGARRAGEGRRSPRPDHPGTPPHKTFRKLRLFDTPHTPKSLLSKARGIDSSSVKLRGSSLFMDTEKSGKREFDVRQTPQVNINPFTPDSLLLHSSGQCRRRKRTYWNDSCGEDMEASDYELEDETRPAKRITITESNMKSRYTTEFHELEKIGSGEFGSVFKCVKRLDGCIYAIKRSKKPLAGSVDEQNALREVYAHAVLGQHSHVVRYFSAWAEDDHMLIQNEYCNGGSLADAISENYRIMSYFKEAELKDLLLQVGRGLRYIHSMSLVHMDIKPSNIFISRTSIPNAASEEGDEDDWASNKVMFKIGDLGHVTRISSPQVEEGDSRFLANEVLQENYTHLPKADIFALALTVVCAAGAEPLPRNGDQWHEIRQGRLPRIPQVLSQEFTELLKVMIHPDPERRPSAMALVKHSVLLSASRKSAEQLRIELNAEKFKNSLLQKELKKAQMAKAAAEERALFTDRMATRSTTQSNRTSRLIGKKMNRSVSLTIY
T5 sequence (Q96SW2 whole entry): as the sequence (Q96SW2 whole entry) above
T5 sequence (Q16531 whole entry partner): as the sequence (Q16531 whole entry partner) above
T2 sequence (P48729 whole entry): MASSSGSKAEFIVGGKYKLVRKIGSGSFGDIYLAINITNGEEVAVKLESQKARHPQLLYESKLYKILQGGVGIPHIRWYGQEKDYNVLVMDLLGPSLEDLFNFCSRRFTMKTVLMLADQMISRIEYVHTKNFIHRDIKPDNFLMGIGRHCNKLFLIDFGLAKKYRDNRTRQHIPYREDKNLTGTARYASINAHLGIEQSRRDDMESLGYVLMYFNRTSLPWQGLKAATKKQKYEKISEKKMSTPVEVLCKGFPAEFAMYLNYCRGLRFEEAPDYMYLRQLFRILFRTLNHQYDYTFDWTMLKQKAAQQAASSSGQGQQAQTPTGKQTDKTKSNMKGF
T2 sequence (Q96SW2 whole entry): as the sequence (Q96SW2 whole entry) above
T2 sequence (Q16531 whole entry partner): as the sequence (Q16531 whole entry partner) above

SMILES	IKZF3 substrate protein remaining % (IKZF3)	CK1α substrate protein remaining % (CK1α)	IKZF1 substrate protein remaining % (IKZF1)	IKZF2 substrate protein remaining % (IKZF2)	WEE1 substrate protein remaining % (WEE1)	GSPT1 substrate protein remaining % (GSPT1)	substrate protein remaining % IKZF3 (IKZF3)	substrate protein remaining % CK1α (CK1α)	substrate protein remaining % IKZF1 (IKZF1)	substrate protein remaining % IKZF2 (IKZF2)	substrate protein remaining % WEE1 (WEE1)	substrate protein remaining % GSPT1 (GSPT1)
O=C1CCN(N2C(=O)c3ccc(CN4CCN(c5ccc(Cl)cn5)CC4)cc3C2=O)C(=O)N1 [GT-05350, 5-((4-(5-chloropyridin-2-yl)piperazin-1-yl)methyl)-2-(2,4-dioxotetrahydropyrimidin-1(2H)-yl)isoindoline-1,3-dione]	B ("B" is defined as 80%< substrate protein remaining %≤ 100%)	B ("B" is defined as 80%< substrate protein remaining %≤ 100%)	B ("B" is defined as 80%< substrate protein remaining %≤ 100%)	B ("B" is defined as 80%< substrate protein remaining %≤ 100%)	B ("B" is defined as 80%< substrate protein remaining %≤ 100%)	A ("A" is defined as 0% ≤ substrate protein remaining % ≤ 80%)	–	–	–	–	–	–
Cc1cscc1C1CCN(Cc2ccc3c(c2)C(=O)N(N2CCC(=O)NC2=O)C3=O)CC1 [GT-05314, 2-(2,4-dioxotetrahydropyrimidin-1(2H)-yl)-5-((4-(4-methylthiophen-3-yl)piperidin-1-yl)methyl)isoindoline-1,3-dione]	B ("B" is defined as 80%< substrate protein remaining %≤ 100%)	B ("B" is defined as 80%< substrate protein remaining %≤ 100%)	B ("B" is defined as 80%< substrate protein remaining %≤ 100%)	B ("B" is defined as 80%< substrate protein remaining %≤ 100%)	B ("B" is defined as 80%< substrate protein remaining %≤ 100%)	A ("A" is defined as 0% ≤ substrate protein remaining % ≤ 80%)	–	–	–	–	–	–
O=C1CCN(N2C(=O)c3ccc(CN4CCN(c5nccc(Cl)c5Br)CC4)cc3C2=O)C(=O)N1 [GT-07291, 5-((4-(3-bromo-4-chloropyridin-2-yl)piperazin-1-yl)methyl)-2-(2,4-dioxotetrahydropyrimidin-1(2H)-yl)isoindoline-1,3-dione]	B ("B" is defined as 80%< substrate protein remaining %≤ 100%)	B ("B" is defined as 80%< substrate protein remaining %≤ 100%)	B ("B" is defined as 80%< substrate protein remaining %≤ 100%)	B ("B" is defined as 80%< substrate protein remaining %≤ 100%)	A ("A" is defined as 0% ≤ substrate protein remaining % ≤ 80%)	A ("A" is defined as 0% ≤ substrate protein remaining % ≤ 80%)	–	–	–	–	–	–
O=C1CCN(N2Cc3cc(CN4C[C@@H]5C[C@H]4CN5C(c4ccccc4)c4ccccc4)ccc3C2=O)C(=O)N1 [GT-04938, 1-(5-(((1S,4S)-5-benzhydryl-2,5-diazabicyclo[2.2.1]heptan-2-yl)methyl)-1-oxoisoindolin-2-yl)dihydropyrimidine-2,4(1H,3H)-dione]	B ("B" is defined as 80%< substrate protein remaining %≤ 100%)	B ("B" is defined as 80%< substrate protein remaining %≤ 100%)	B ("B" is defined as 80%< substrate protein remaining %≤ 100%)	A ("A" is defined as 0% ≤ substrate protein remaining % ≤ 80%)	A ("A" is defined as 0% ≤ substrate protein remaining % ≤ 80%)	A ("A" is defined as 0% ≤ substrate protein remaining % ≤ 80%)	–	–	–	–	–	–
O=C1CCN(N2C(=O)c3ccc(CN4CC=C(c5ccoc5)CC4)cc3C2=O)C(=O)N1 [GT-07442, 2-(2,4-dioxotetrahydropyrimidin-1(2H)-yl)-5-((4-(furan-3-yl)-3,6-dihydropyridin-1(2H)-yl)methyl)isoindoline-1,3-dione]	–	–	–	–	–	–	A (0% ≤ substrate protein remaining % ≤ 80%)	B (80%< substrate protein remaining %≤ 100%)	B (80%< substrate protein remaining %≤ 100%)	B (80%< substrate protein remaining %≤ 100%)	A (0% ≤ substrate protein remaining % ≤ 80%)	A (0% ≤ substrate protein remaining % ≤ 80%)
CC1(C)CCC(CN2CCN(Cc3ccc4c(c3)CN(N3CCC(=O)NC3=O)C4=O)C(C(F)(F)F)C2)=C(c2ccc(Cl)cc2)C1 (stereo not drawn) [GT-07296, 1-(5-((4-((4'-chloro-5,5-dimethyl-3,4,5,6-tetrahydro-[1,1'-biphenyl]-2-yl)methyl)-2-(trifluoromethyl)piperazin-1-yl)methyl)-1-oxoisoindolin-2-yl)dihydropyrimidine-2,4(1H,3H)-dione]	–	–	–	–	–	–	B (80%< substrate protein remaining %≤ 100%)	A (0% ≤ substrate protein remaining % ≤ 80%)	A (0% ≤ substrate protein remaining % ≤ 80%)	B (80%< substrate protein remaining %≤ 100%)	A (0% ≤ substrate protein remaining % ≤ 80%)	A (0% ≤ substrate protein remaining % ≤ 80%)
O=C1CCN(N2C(=O)c3ccc(CN4CCC(N5CCOc6cc(F)ccc65)CC4)cc3C2=O)C(=O)N1 [GT-07682, 2-(2,4-dioxotetrahydropyrimidin-1(2H)-yl)-5-((4-(7-fluoro-2,3-dihydro-4H-benzo[b][1,4]oxazin-4-yl)piperidin-1-yl)methyl)isoindoline-1,3-dione]	–	–	–	–	–	–	B (80%< substrate protein remaining %≤ 100%)	B (80%< substrate protein remaining %≤ 100%)	B (80%< substrate protein remaining %≤ 100%)	B (80%< substrate protein remaining %≤ 100%)	B (80%< substrate protein remaining %≤ 100%)	A (0% ≤ substrate protein remaining % ≤ 80%)
O=C1CCN(N2C(=O)c3ccc(CN4CCN(c5ccc(F)cn5)CC4)cc3C2=O)C(=O)N1 [GT-06965, 2-(2,4-dioxotetrahydropyrimidin-1(2H)-yl)-5-((4-(5-fluoropyridin-2-yl)piperazin-1-yl)methyl)isoindoline-1,3-dione]	B ("B" is defined as 80%< substrate protein remaining %≤ 100%)	B ("B" is defined as 80%< substrate protein remaining %≤ 100%)	B ("B" is defined as 80%< substrate protein remaining %≤ 100%)	A ("A" is defined as 0% ≤ substrate protein remaining % ≤ 80%)	B ("B" is defined as 80%< substrate protein remaining %≤ 100%)	B ("B" is defined as 80%< substrate protein remaining %≤ 100%)	–	–	–	–	–	–
O=C1CCN(N2Cc3cc(CN4CCN(c5ccc(Cl)c(Cl)c5)CC4)ccc3C2=O)C(=O)N1 [GT-06775, 1-(5-((4-(3,4-dichlorophenyl)piperazin-1-yl)methyl)-1-oxoisoindolin-2-yl)dihydropyrimidine-2,4(1H,3H)-dione]	A ("A" is defined as 0% ≤ substrate protein remaining % ≤ 80%)	A ("A" is defined as 0% ≤ substrate protein remaining % ≤ 80%)	B ("B" is defined as 80%< substrate protein remaining %≤ 100%)	A ("A" is defined as 0% ≤ substrate protein remaining % ≤ 80%)	B ("B" is defined as 80%< substrate protein remaining %≤ 100%)	A ("A" is defined as 0% ≤ substrate protein remaining % ≤ 80%)	–	–	–	–	–	–
O=C1CCN(N2C(=O)c3ccc(CN4CC=C(c5ncnc6scc(-c7ccccc7)c56)CC4)cc3C2=O)C(=O)N1 [GT-08431, 2-(2,4-dioxotetrahydropyrimidin-1(2H)-yl)-5-((4-(5-phenylthieno[2,3-d]pyrimidin-4-yl)-3,6-dihydropyridin-1(2H)-yl)methyl)isoindoline-1,3-dione]	–	–	–	–	–	–	B (80%< substrate protein remaining %≤ 100%)	B (80%< substrate protein remaining %≤ 100%)	B (80%< substrate protein remaining %≤ 100%)	A (0% ≤ substrate protein remaining % ≤ 80%)	A (0% ≤ substrate protein remaining % ≤ 80%)	B (80%< substrate protein remaining %≤ 100%)
O=C1CCN(N2C(=O)c3ccc(CN4CCN(c5c(Cl)ccnc5Cl)CC4)cc3C2=O)C(=O)N1 [GT-06973, 5-((4-(2,4-dichloropyridin-3-yl)piperazin-1-yl)methyl)-2-(2,4-dioxotetrahydropyrimidin-1(2H)-yl)isoindoline-1,3-dione]	A ("A" is defined as 0% ≤ substrate protein remaining % ≤ 80%)	B ("B" is defined as 80%< substrate protein remaining %≤ 100%)	A ("A" is defined as 0% ≤ substrate protein remaining % ≤ 80%)	B ("B" is defined as 80%< substrate protein remaining %≤ 100%)	A ("A" is defined as 0% ≤ substrate protein remaining % ≤ 80%)	B ("B" is defined as 80%< substrate protein remaining %≤ 100%)	–	–	–	–	–	–
O=C1CCN(N2Cc3cc(CN4CCn5c(nnc5C(F)(F)F)C4)ccc3C2=O)C(=O)N1 [GT-07719, 1-(1-oxo-5-((3-(trifluoromethyl)-5,6-dihydro-[1,2,4]triazolo[4,3-a]pyrazin-7(8H)-yl)methyl)isoindolin-2-yl)dihydropyrimidine-2,4(1H,3H)-dione]	–	–	–	–	–	–	A (0% ≤ substrate protein remaining % ≤ 80%)	A (0% ≤ substrate protein remaining % ≤ 80%)	B (80%< substrate protein remaining %≤ 100%)	A (0% ≤ substrate protein remaining % ≤ 80%)	B (80%< substrate protein remaining %≤ 100%)	A (0% ≤ substrate protein remaining % ≤ 80%)
